Assay results: patent publication EP0609289B1, “IMIDAZOLE DERIVATIVES AND PHARMACEUTICAL COMPOSITIONS CONTAINING THE SAME” (THE UPJOHN COMPANY, priority 1991, dated 1993)

Key:
[1] = test system: angiotensin II constriction in an isolated rabbit thoracic aorta; assay: Antagonism to angiotensin II constriction in an isolated rabbit thoracic aorta (test 3); conditions: test compound 10^-6 M for 20 minutes
Method: 3) Antagonism to angiotensin II constriction in an isolated rabbit thoracic aorta
A rectangular strip-like sample of thoracic aorta isolated from an anaesthetized rabbit was prepared, and the sample was suspended at 2.0 g of loaded tension in a Magnus tube filled with Krebs-Henseleitoid nutrition solution which was well aerated with 95% O2-5% CO2, and the constriction tension was measured using an isometric transducer. After the tension of the sample at rest became stable, accumulative administration of angiotensin II was carried out to obtain a concentration-action curve. Thereafter, the sample was washed with the same nutrition solution, then treated with test compound (10^-6 M) for 20 minutes to obtain again a concentration-action curve of angiotensin II. The results were obtained as followed: generated maximum tension at the first accumulative administration of angiotensin II was regarded as 100 %, and the 50 % effective concentration (ED50) was obtained in the presence or absence of the test compound, and pA2 value was calculated according to the following equations: • pA2=-logKB KB=C/{(A'/A)-1} • C; concentration of the test compound (M) • A'; ED50 in the presence of test compound (M) • A; ED50 in the absence of the test compound (M)

Angiotensin II receptor = assay: In vitro angiotensin II mesenteric artery receptor binding assay (test 1); conditions: rat mesenteric artery membrane fraction, 0.2 nM 125I-Ang II, 22°C, 90 minutes
Outline: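 Rat mesenteric artery membranes ([…] protein equivalent) incubated with 0.2 nM ^125I-Ang II and compound, 90 min at 22°C, pH 7.2 Tris buffer. Bound radioactivity counted after filtration; nonspecific binding defined with 1 µM unlabeled angiotensin II.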

[2] = test system: blood pressure increase by angiotensin II; assay: Antagonism to blood pressure increase by angiotensin II in a spine destroyed (pithed) rat (test 4); assay type: in vivo, Wistar rat; conditions: intravenous administration, 3µg/kg angiotensin II, read-out: Inhibition of blood pressure increase by angiotensin II in pithed rat ED50(mg/kg) (test 4)
Text: 4) Antagonism to blood pressure increasing by angiotensin II in a spine destroyed rat
Wistar rat anaesthetized with pentobarbital was fixed at dorsal position, and a cannula for measuring blood pressure was inserted into sinister arteria carotis communis, and a cannula for administration of the test compound into dexter external jugular vein and a cannula for administration of angiotensin II into sinister external jugular vein, ambilateral nervus vagus was cut, and artificial respiration was carried out. A thin bar made of metal was stabbed into spinal column through sinister orbita to destroy spine. Blood pressure was recorded on polygraph via pressure transducer from an arterial cannula. After blood pressure was stable for more than 30 min., 3µg/kg of angiotensin II was administered intravenously four times every 15 min, and every 5 min. before the administration of angiotensin II from the second administration onward, a solvent, a lower dose of the test compound, and a higher dose of the test compound were administered intravenously in this order to observe the blood pressure increasing response by angiotensin II. ED50 values were calculated from the inhibiting rate when the first blood pressure increase by angiotensin II was regarded as 100 %.

[3] = test system: blood pressure increase by angiotensin II; assay: Blood pressure increase by angiotensin II-inhibiting test, intraduodenal administration, anesthetized normotensive rat; assay type: in vivo
[4] = test system: hypertensive rat model (SHR); assay: Oral administration test in hypertensive rat model (SHR); assay type: in vivo; conditions: 10 mg/kg oral administration

| Structure (SMILES) | IC50 (Angiotensin II receptor) [nM] | Inhibition of rabbit aorta constriction pA2 (test 3) [1] | ED50 [2] [mg/kg] | ED50 [3] [mg/kg] | action lasting time ([3]; 3 mg/kg) | vasodepressor activity [4] | action lasting time ([3]; 1 mg/kg) |
| --- | --- | --- | --- | --- | --- | --- | --- |
| CCCc1nc2c(n1Cc1ccc(-c3ccccc3-c3nn[nH]n3)cc1)C(=O)N1N(C2)C2(C)CCC1(C)CC2 [Compound No. 450, 5,8-dimethyl-5,8-ethano-2-n-propyl-5,6,7,8-tetrahydro-1-[{2'-(1H-tetrazol-5-yl)biphenyl-4-yl}methyl)-1H,4H-1,3,4a,8a-tetraza-cyclopentanaphthalene-9-one] | 1.7 | 9.92 | 0.32 | 0.95 | not less than 5 hours | – | – |
| CCCc1nc2c(n1Cc1ccc(-c3ccccc3-c3nnn[nH]3)cc1)C(=O)N1N(C2)C2(CC)CCC1(CC)CC2 [Compound No. 454, 5,8-diethyl-5,8-ethano-2-n-propyl-5,6,7,8-tetrahydro-1-[{2'-(1H-tetrazol-5-yl)biphenyl-4-yl}methyl]-1H,4H-1,3,4a,8a-tetraza-cyclopentanaphthalene-9-one] | 3.5 | 10.34 | 0.34 | 1.28 | not less than 5 hours | – | – |
| CCCCc1nc2c(n1Cc1ccc(-c3ccccc3-c3nnn[nH]3)cc1)C(=O)N1N(C2)C2(CC)CCC1(CC)CC2 [Compound No. 455, 2-n-butyl-5,8-diethyl-5,8-ethano-5,6,7,8-tetrahydro-1-[{2'-(1H-tetrazol-5-yl)biphenyl-4-yl}methyl]-1H,4H-1,3,4a,8a-tetraza-cyclopentanaphthalene-9-one] | 3.3 | 8.82 | 0.64 | 0.81 | – | – | not less than 5 hours |
| CCCc1nc2c(=O)n3n(c(=O)c2n1Cc1ccc(-c2ccccc2-c2nnn[nH]2)cc1)C1CCC3(COCC(=O)OC(C)(C)C)CC1 [Compound No. 223, 5-t-butoxycarboxylmethoxymethyl-5,8-ethano-2-n-propyl-5,6,7,8-tetrahydro-1-[{2'-(1H-tetrazol-5-yl)biphenyl-4-yl}methyl]-1H-1,3,4a,8a-tetraza-cyclopentanaphthalene-4,9-dione] | 9.8 | 9.68 | 0.1 | – | – | – | – |

Second part, led by results:

| IC50 (Angiotensin II receptor) [nM] | Structure (SMILES) | Inhibition of rabbit aorta constriction pA2 (test 3) [1] | ED50 [2] [mg/kg] | ED50 [3] [mg/kg] | action lasting time ([3]; 3 mg/kg) | vasodepressor activity [4] | action lasting time ([3]; 1 mg/kg) |
| --- | --- | --- | --- | --- | --- | --- | --- |
| 3.9 | CCCc1nc2c(=O)n3n(c(=O)c2n1Cc1ccc(-c2ccccc2-c2nnn[nH]2)cc1)C(C)CCC3C(=O)NC(C)(C)C (stereo not drawn) [Compound No. 207, 4,9-dioxo-8-methyl-2-n-propyl-5,6,7,8-tetrahydro-1-[{2'-(1H-tetrazol-5-yl)biphenyl-4-yl}methyl]-1H-1,3,4a,8a-tetraza-cyclopentanaphthalene-5-carboxy-N-t-butylamide] | 10.1 | 0.033 | – | – | – | – |
| 1.9 | CCCCc1nc2c(n1Cc1ccc(-c3ccccc3-c3nn[nH]n3)cc1)C(=O)N1N(C2)C2(C)CCC1(C)CC2 [Compound No. 451, 2-n-butyl-5,8-dimethyl-5,8-ethano-5,6,7,8-tetrahydro-1-[{2'-(1H-tetrazol-5-yl)biphenyl-4-yl}methyl]-1H,4H-1,3,4a,8a-tetraza-cyclopentanaphthalene-9-one] | 10.04 | 0.63 | 0.84 | – | significant vasodepressor activity over 24 hours | not less than 5 hours |
| 2.8 | CCCCc1nc2c(=O)n3n(c(=O)c2n1Cc1ccc(-c2ccccc2-c2nn[nH]n2)cc1)C1CCC3CC1 [Compound No. 109, 2-n-butyl-5,8-ethano-5,6,7,8-tetrahydro-1-[(2'-(1H-tetrazol-5-yl)biphenyl-4-yl)methyl]-1H-1,3,4a,8a-tetraza-cyclopentanaphthalene-4,9-dione] | 9.49 | 0.21 | – | – | – | – |
